Data on one compound can be found in US20090215748A1, “FXR agonists for treating vitamin D associated diseases” (Wyeth, priority 2007, published 2009).

Common to all, as to type: in vivo
Assay [1] concerns KKAy mice. As to the kind of experiment: Serum creatinine level in KKAy mice, 7 days oral dosing (FIG. 3). The settings on record: orally once a day for seven days, not statistically significant.
In another assay the test system is OVX rats. Nature of the assay: OVX-induced bone loss in OVX rats. The conditions noted are these: 3 and 30 mg/kg, 6-10 weeks of treatment. The source says:
OVX rats are rats subjected to bilateral ovariectomy, which results in development of osteopenia. Two studies have been conducted to evaluate the effect of one of the FXR agonists disclosed herein, isopropyl 3-(3,4-difluorobenzoyl)-1,1-dimethyl-1,2,3,6-tetrahydroazepino[4,5-b]-indole-5-carboxylate, in OVX rats. […] The exposure level of the compound in bone tissue of the rats was not studied and the EC50 of the compound in bone cells was not studied. Accordingly, the reason for the absence of an observable effect has not been determined.

The subject of the next assay is renin. Nature of the assay: Renal renin gene expression in KKAy mice, 4 weeks treatment (FIG. 6). The settings on record: once a day for 4 weeks. An excerpt:
Vitamin D and its receptor vitamin D receptor (VDR) may regulate the cardiovascular system. VDR deficient and CYP27B1 deficient mice have increased blood pressure and left ventricle hypertrophy.

For assay [2], the system named is CYP27B1. As to the kind of experiment: Gene profiling of kidneys isolated from KKAy mice treated with Compound A. The protocol:
To examine the role of FXR in the kidney, gene-profiling experiments were performed using kidneys isolated from KKAy mice treated with Compound A. Genes involved in vitamin D synthesis, calcium mobilization, amino acid metabolism, inflammation, oxidative phosphorylation, and nitric oxide production were regulated by Compound A treatment. […] The CYP27B1 gene, expressed in the proximal tubes of the kidney, encodes 25-hydroxyvitamin D3 1α-hydroxylase, which generates the active form of vitamin D, 1α,25-dihydroxyvitamin D3, from a proform of vitamin D, 25 hydroxyvitamin D3.

Assay [3] relates to CYP27B1. Nature of the assay: CYP27B1 expression in wild (WT) mice, 7 day treatment (FIG. 1).
The test system of assay [4] is CYP27B1. As to the kind of experiment: CYP27B1 expression in FXR deficient (FXR KO) mice, 7 day treatment (FIG. 1).
Another assay deals with MMP-14. Nature of the assay: MMP-14 gene expression in chow fed KKAy mice, 7 day treatment (FIG. 5).
Assay [5] has as its system CYP27B1. Nature of the assay: CYP27B1 gene expression in chow fed KKAy mice, 7 day treatment (FIG. 4).
The subject of assay [6] is KKAy mice. As to the kind of experiment: Hepatic lipid metabolism and deposition in the KKAy model of diabetic nephropathy. An excerpt:
The KKAy mice are diabetic mice characterized by hyperglycemia and insulin resistance and are renally impaired with nodular glomerulosclerosis, mesangial proliferation, and abuminuria that increases with age or with a high cholesterol diet. Abnormal lipid metabolism and renal lipid accumulation may contribute to diabetic nephropathy. Administration of FXR agonist, Compound A (isopropyl 3-(3,4-difluorobenzoyl)-1,1-dimethyl-1,2,3,6-tetrahydroazepino[4,5-b]indole-5-carboxylate) improves hepatic lipid metabolism and deposition in the KKAy model of diabetic nephropathy.

For `CC(C)OC(=O)C1=CN(C(=O)c2ccc(F)c(F)c2)CC(C)(C)c2c1[nH]c1ccccc21` [Compound A, isopropyl 3-(3,4-difluorobenzoyl)-1,1-dimethyl-1,2,3,6-tetrahydroazepino[4,5-b]indole-5-carboxylate], in the assay with KKAy mice [1], the “reduction in serum creatinine levels” value turned out to be 20%. Moreover, in the assay with OVX rats, the “effect on preventing or restoring OVX-induced bone loss” value is on record as “did not show any effect”. Besides, the “renal renin gene expression” value in the assay on renin is given as “significant reduction”. In addition, the CYP27B1 gene expression entry in the assay on CYP27B1 [2] and with CYP27B1 [5] was “upregulated” each time. In the assay with CYP27B1 [3], the “expression of CYP27B1, induction” value was determined as 15 fold. Besides, the “effect on the expression of CYP27B1” value with CYP27B1 [4] is given as “No effect”. For the same compound, the MMP-14 gene expression result with MMP-14 is “decreased”. In addition, the “hepatic lipid metabolism and deposition” value with KKAy mice [6] was “improves”.
